Results published in ChEMBL document CHEMBL5291721, “A preclinical secondary pharmacology resource illuminates target-adverse drug reaction associations of marketed drugs” (Nat Commun, 2023).

Legend:
[1] = target: Voltage-dependent N-type calcium channel subunit alpha-1B (Rattus norvegicus, UniProt Q02294); assay type: functional
[2] = target: T1, Endothelin receptor type B (Homo sapiens, UniProt P24530)
T1 sequence (P24530 whole entry): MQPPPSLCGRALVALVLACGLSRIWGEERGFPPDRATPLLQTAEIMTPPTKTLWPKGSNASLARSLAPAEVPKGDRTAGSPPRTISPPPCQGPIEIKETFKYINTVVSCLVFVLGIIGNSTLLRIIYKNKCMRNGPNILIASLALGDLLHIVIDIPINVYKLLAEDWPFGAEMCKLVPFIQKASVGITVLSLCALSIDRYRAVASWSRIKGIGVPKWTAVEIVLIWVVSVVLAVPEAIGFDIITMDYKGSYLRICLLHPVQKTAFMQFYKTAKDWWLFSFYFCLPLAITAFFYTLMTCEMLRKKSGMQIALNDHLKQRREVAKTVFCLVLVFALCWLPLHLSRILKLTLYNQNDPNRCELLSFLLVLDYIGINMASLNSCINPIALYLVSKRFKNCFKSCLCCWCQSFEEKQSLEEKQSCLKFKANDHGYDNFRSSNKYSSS

Glucagon receptor = Glucagon receptor (Homo sapiens, UniProt P47871)
[3] = target: T2, Gastric inhibitory polypeptide receptor (Homo sapiens, UniProt P48546)
T2 sequence (P48546 whole entry): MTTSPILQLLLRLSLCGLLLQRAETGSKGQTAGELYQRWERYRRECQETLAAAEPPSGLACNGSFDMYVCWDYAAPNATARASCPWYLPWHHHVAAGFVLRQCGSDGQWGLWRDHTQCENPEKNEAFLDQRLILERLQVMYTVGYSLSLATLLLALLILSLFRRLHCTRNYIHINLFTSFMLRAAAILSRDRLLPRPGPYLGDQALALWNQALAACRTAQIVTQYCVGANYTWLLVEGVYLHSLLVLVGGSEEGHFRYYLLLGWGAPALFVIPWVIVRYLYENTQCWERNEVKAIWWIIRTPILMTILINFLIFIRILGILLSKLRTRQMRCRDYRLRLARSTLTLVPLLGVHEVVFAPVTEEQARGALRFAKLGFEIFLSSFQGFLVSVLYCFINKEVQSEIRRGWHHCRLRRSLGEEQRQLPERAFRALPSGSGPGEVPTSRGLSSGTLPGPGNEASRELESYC

[4] = target: T3, Neuropeptide Y receptor type 2 (Homo sapiens, UniProt P49146)
T3 sequence (P49146 whole entry): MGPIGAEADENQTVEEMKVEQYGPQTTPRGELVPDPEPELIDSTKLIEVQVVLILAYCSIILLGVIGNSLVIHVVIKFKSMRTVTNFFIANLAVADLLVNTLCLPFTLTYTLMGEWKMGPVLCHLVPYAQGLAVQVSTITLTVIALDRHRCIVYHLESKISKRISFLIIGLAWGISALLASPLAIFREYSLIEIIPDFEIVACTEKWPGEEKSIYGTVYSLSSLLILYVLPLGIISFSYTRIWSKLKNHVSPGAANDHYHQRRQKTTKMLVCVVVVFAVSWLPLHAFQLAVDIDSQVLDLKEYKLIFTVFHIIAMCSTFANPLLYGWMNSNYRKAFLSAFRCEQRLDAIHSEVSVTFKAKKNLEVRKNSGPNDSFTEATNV

Androgen receptor = target: T4, Androgen receptor (Homo sapiens, UniProt P10275)
T4 sequence (P10275 whole entry): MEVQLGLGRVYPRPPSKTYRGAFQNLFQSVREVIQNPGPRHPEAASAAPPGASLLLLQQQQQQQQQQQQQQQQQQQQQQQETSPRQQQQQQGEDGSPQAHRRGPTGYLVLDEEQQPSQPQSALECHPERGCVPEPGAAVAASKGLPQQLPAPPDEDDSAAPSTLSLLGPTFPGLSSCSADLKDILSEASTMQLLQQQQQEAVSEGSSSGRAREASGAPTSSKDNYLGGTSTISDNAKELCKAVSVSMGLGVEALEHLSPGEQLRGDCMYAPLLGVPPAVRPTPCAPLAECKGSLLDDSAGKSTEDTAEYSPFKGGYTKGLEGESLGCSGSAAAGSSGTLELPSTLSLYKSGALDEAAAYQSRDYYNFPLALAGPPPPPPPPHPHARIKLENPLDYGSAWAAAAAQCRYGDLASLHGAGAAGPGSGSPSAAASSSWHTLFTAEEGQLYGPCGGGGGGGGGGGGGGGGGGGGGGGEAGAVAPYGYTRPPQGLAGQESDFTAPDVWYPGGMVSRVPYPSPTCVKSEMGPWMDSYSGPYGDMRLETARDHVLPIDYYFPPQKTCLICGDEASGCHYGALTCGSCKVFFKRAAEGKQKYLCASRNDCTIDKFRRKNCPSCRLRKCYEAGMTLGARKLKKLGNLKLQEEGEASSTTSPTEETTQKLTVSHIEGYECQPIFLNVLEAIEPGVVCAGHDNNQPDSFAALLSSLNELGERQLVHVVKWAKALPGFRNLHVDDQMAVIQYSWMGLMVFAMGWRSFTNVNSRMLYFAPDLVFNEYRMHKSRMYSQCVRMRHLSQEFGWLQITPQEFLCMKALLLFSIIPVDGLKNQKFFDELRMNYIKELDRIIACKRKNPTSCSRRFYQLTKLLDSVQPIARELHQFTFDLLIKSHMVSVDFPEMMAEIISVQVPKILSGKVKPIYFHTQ

[5] = target: T5, Muscarinic acetylcholine receptor M2 (Homo sapiens, UniProt P08172)
T5 sequence (P08172 whole entry): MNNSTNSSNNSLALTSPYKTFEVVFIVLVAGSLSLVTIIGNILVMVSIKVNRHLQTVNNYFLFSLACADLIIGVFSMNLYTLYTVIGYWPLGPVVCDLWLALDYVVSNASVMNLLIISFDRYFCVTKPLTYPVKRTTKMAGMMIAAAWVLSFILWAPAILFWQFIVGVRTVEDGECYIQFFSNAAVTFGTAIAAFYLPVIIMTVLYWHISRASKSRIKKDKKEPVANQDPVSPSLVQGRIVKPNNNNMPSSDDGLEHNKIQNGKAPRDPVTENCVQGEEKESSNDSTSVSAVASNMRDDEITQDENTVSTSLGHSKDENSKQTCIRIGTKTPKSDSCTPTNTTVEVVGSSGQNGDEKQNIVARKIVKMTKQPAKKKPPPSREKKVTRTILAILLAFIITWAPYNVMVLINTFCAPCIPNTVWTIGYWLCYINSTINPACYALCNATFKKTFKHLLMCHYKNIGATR
Note: assay procedure not described here.

Chain of Glucagon receptor (P47871 whole entry): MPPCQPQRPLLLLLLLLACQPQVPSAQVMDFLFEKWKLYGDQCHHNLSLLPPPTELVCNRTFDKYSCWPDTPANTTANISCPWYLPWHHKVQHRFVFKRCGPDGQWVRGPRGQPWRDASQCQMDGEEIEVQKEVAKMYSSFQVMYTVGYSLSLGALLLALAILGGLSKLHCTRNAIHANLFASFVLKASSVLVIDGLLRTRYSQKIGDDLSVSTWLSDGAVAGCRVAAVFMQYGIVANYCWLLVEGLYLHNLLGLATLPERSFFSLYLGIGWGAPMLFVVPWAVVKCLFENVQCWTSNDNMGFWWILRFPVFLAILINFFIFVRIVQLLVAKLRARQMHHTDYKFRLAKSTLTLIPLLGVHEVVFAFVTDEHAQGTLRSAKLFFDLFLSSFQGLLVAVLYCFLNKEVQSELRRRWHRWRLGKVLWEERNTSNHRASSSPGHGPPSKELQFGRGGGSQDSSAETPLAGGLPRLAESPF
Chain of Voltage-dependent N-type calcium channel subunit alpha-1B (Q02294 whole entry): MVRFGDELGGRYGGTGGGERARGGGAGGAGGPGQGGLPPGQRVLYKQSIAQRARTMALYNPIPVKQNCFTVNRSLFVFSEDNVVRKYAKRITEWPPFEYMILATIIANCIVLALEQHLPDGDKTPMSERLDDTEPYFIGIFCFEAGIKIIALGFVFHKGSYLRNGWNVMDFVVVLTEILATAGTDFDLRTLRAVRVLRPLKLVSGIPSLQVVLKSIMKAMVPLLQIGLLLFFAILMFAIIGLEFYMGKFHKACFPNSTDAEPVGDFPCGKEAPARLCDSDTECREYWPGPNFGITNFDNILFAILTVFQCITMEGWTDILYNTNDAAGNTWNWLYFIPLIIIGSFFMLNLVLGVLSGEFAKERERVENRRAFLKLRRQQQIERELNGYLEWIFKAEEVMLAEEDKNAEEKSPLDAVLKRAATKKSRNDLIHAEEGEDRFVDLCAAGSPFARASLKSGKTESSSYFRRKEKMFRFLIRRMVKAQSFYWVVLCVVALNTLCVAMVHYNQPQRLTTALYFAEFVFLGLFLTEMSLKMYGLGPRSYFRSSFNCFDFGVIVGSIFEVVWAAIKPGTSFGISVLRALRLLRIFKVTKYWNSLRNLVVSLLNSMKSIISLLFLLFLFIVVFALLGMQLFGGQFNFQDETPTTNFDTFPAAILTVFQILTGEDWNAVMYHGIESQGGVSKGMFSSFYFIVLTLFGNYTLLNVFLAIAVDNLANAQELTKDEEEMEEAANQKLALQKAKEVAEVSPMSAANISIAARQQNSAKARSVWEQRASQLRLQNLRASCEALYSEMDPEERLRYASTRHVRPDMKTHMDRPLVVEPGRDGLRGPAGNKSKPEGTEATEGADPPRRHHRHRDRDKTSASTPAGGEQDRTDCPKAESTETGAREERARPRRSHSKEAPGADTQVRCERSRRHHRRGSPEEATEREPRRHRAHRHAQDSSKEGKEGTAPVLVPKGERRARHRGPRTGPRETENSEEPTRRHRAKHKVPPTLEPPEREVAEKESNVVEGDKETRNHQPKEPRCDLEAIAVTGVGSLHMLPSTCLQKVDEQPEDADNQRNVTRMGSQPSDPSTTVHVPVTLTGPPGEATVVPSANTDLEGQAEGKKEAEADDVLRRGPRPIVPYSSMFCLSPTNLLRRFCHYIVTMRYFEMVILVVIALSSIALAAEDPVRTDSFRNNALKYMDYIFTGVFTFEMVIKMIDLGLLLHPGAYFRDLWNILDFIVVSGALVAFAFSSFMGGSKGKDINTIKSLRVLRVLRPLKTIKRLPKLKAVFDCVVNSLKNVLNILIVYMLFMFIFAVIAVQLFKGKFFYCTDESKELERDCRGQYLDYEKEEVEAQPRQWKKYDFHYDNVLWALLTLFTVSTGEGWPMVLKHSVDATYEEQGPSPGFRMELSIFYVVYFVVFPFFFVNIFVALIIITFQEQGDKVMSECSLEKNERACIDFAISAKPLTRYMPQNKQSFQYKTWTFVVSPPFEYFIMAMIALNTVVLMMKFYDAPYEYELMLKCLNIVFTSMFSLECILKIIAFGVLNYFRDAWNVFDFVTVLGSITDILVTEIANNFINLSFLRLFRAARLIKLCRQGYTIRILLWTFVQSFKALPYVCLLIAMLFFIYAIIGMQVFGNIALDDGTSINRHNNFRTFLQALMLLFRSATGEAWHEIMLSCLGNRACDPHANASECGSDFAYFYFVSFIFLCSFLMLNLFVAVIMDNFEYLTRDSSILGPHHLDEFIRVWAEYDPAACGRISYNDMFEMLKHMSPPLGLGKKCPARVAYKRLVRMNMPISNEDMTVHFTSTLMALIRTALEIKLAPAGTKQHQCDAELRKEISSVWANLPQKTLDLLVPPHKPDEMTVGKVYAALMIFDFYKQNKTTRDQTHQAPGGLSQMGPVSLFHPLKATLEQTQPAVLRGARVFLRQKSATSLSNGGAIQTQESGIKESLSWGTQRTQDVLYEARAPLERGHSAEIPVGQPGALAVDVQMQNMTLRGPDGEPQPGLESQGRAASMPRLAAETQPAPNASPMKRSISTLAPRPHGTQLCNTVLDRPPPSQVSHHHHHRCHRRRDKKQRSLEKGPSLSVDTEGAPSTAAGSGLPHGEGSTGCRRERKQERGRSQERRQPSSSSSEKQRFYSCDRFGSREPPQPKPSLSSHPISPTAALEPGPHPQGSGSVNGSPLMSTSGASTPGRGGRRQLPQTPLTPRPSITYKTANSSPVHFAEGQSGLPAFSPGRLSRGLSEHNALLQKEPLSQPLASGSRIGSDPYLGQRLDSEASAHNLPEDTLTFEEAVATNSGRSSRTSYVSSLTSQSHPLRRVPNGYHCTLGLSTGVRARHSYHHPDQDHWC

Row | Structure (SMILES) | AC50 [1] | AC50 [2] | AC50 (Glucagon receptor) | AC50 [3] | AC50 [4] | AC50 (Androgen receptor) | AC50 [5]
1 | CC(C)N(CCC(C(N)=O)(c1ccccc1)c1ccccn1)C(C)C (stereo not drawn) [DISOPYRAMIDE] | > 10 µM | > 30 µM | > 30 µM | > 30 µM | > 30 µM | – | –
2 | CN1CCC(=C2c3ccccc3Sc3ccccc32)CC1 [PIMETHIXENE] | – | – | – | – | – | > 30 µM | –
3 | CCc1nc(C(N)=O)c(Nc2ccc(N3CCC(N4CCN(C)CC4)CC3)c(OC)c2)nc1NC1CCOCC1 [GILTERITINIB] | – | – | – | – | – | > 30 µM | –
4 | CC(C)(O)CNc1nc(Nc2ccnc(C(F)(F)F)c2)nc(-c2cccc(C(F)(F)F)n2)n1 [ENASIDENIB] | – | – | – | – | – | > 30 µM | –
5 | Nc1ccc(S(=O)(=O)Nc2nccs2)cc1 [SULFATHIAZOLE] | > 10 µM | > 30 µM | > 30 µM | > 30 µM | > 30 µM | – | > 10 µM
6 | N#Cc1ccc2c(c1)N(CCCN1CCC(O)CC1)c1ccccc1S2 [PERICIAZINE] | – | – | – | – | – | > 30 µM | –
7 | C/C=C/C/C=C/CCC(=O)[C@H]1O[C@H]1C(N)=O [CERULENIN] | – | – | – | – | – | > 30 µM | –
8 | CC(CN1CC(=O)NC(=O)C1)N1CC(=O)NC(=O)C1 (stereo not drawn) [RAZOXANE] | – | – | – | – | – | > 30 µM | –
9 | CCN(CC)CCNC(=O)c1c(C)[nH]c(/C=C2\C(=O)Nc3ccc(F)cc32)c1C [SUNITINIB] | – | – | – | – | – | – | 7.19 µM
10 | CO[C@H]1/C=C/O[C@@]2(C)Oc3c(C)c(O)c4c(O)c(c(/C=N/N5CCN(C)CC5)c(O)c4c3C2=O)NC(=O)/C(C)=C\C=C\[C@H](C)[C@H](O)[C@@H](C)[C@@H](O)[C@@H](C)[C@H](OC(C)=O)[C@@H]1C [RIFAMPIN] | > 10 µM | > 30 µM | > 30 µM | > 30 µM | 21.6 µM | – | –
11 | O=C(O)c1cc(/N=N/c2ccc(O)c(C(=O)O)c2)ccc1O [OLSALAZINE] | – | – | – | – | – | > 30 µM | –
12 | CC[C@H](C)C[C@H](C)CCCCCCCCC(=O)N[C@H]1C[C@@H](O)[C@@H](NCCN)NC(=O)[C@@H]2[C@@H](O)CCN2C(=O)[C@H]([C@H](O)CCN)NC(=O)[C@H]([C@H](O)[C@@H](O)c2ccc(O)cc2)NC(=O)[C@@H]2C[C@@H](O)CN2C(=O)[C@H]([C@@H](C)O)NC1=O [CASPOFUNGIN] | – | – | – | – | – | > 30 µM | –
13 | OC[C@H]1O[C@@H](c2ccc(F)c(Cc3cc4ccccc4s3)c2)[C@H](O)[C@@H](O)[C@@H]1O [IPRAGLIFLOZIN] | – | – | – | – | – | > 30 µM | –
14 | CC(C)Cc1ccc(C(C)C(=O)O)cc1 (stereo not drawn) [IBUPROFEN] | > 10 µM | > 30 µM | > 30 µM | > 30 µM | > 30 µM | – | > 10 µM
15 | Cc1onc(-c2ccccc2)c1-c1ccc(S(N)(=O)=O)cc1 [VALDECOXIB] | > 10 µM | > 30 µM | > 30 µM | > 30 µM | > 30 µM | – | > 10 µM
16 | C[C@H]1c2cccc(O)c2C(=O)C2=C(O)[C@]3(O)C(=O)C(C(N)=O)=C(O)[C@@H](N(C)C)[C@@H]3[C@@H](O)[C@@H]21 [DOXYCYCLINE] | > 10 µM | > 30 µM | > 30 µM | > 30 µM | > 30 µM | – | > 10 µM

Row | Structure (SMILES) | AC50 [1] | AC50 [2] | AC50 (Glucagon receptor) | AC50 [3] | AC50 [4] | AC50 (Androgen receptor) | AC50 [5]
17 | COc1ccccc1OCCNCC(O)COc1cccc2[nH]c3ccccc3c12 (stereo not drawn) [CARVEDILOL] | > 10 µM | > 30 µM | > 30 µM | > 30 µM | > 30 µM | – | > 10 µM
18 | CC[C@H](c1ccc(O)cc1)[C@@H](CC)c1ccc(O)cc1 [HEXESTROL] | – | – | – | – | – | 6.95 µM | –
19 | CC(C)OC(=O)CCC/C=C\C[C@@H]1[C@@H](/C=C/C(F)(F)COc2ccccc2)[C@H](O)C[C@@H]1O [TAFLUPROST] | – | – | – | – | – | > 30 µM | –
20 | C=CC[C@@H]1/C=C(\C)C[C@H](C)C[C@H](OC)[C@H]2O[C@@](O)(C(=O)C(=O)N3CCCC[C@H]3C(=O)O[C@H](/C(C)=C/[C@@H]3CC[C@@H](O)[C@H](OC)C3)[C@H](C)[C@@H](O)CC1=O)[C@H](C)C[C@@H]2OC [TACROLIMUS ANHYDROUS] | > 10 µM | > 30 µM | > 30 µM | > 30 µM | > 30 µM | – | > 10 µM
21 | O=C(O)COc1ccc(C(=O)c2cccs2)c(Cl)c1Cl | – | – | – | – | – | > 30 µM | –
22 | C[C@@H]1C[C@H]2[C@@H]3CCC4=CC(=O)C=C[C@]4(C)[C@@]3(Cl)[C@@H](O)C[C@]2(C)[C@@]1(OC(=O)c1ccco1)C(=O)CCl [MOMETASONE FUROATE] | – | – | – | – | – | 0.0337 µM | –
23 | CCCN(CCC)C(=O)Cc1c(-c2ccc(Cl)cc2)nc2ccc(Cl)cn12 [ALPIDEM] | > 10 µM | > 10 µM | > 10 µM | – | > 10 µM | – | > 10 µM
24 | CC(=O)O[C@]1(C(C)=O)CC[C@H]2[C@@H]3C=C(C)C4=CC(=O)CC[C@@H]4[C@H]3CC[C@@]21C [NOMEGESTROL ACETATE] | – | – | – | – | – | 0.02 µM | –
25 | N[C@@H](CC(=O)N1CCn2c(nnc2C(F)(F)F)C1)Cc1cc(F)c(F)cc1F [SITAGLIPTIN] | > 10 µM | > 10 µM | – | – | > 10 µM | – | > 10 µM
26 | OC[C@H]1O[C@@H](c2ccc(Cl)c(Cc3ccc(O[C@H]4CCOC4)cc3)c2)[C@H](O)[C@@H](O)[C@@H]1O [EMPAGLIFLOZIN] | – | – | – | – | – | > 30 µM | –
27 | CC(C)C[C@H](NC(=O)CNC(=O)c1cc(Cl)ccc1Cl)B(O)O [IXAZOMIB] | – | – | – | – | – | > 30 µM | –
28 | COc1cc2nccc(Oc3ccc(NC(=O)C4(C(=O)Nc5ccc(F)cc5)CC4)cc3)c2cc1OC [CABOZANTINIB] | – | – | – | – | – | > 30 µM | –
29 | FC(F)(F)c1ccc(CNc2ccc(Cc3c[nH]c4ncc(Cl)cc34)cn2)cn1 [PEXIDARTINIB] | – | – | – | – | – | > 30 µM | –
30 | CCOC(=O)c1c(C)cc2c(CO)n[nH]c(=O)c2c1C [OXAGRELATE] | – | – | – | – | – | > 30 µM | –
31 | COc1ccccc1Oc1c(NS(=O)(=O)c2ccc(C(C)(C)C)cc2)nc(-c2ncccn2)nc1OCCO [BOSENTAN] | > 10 µM | – | > 30 µM | > 30 µM | > 30 µM | – | > 10 µM
32 | C[C@@H](Oc1cc(-c2cnn(C3CCNCC3)c2)cnc1N)c1c(Cl)ccc(F)c1Cl [CRIZOTINIB] | – | – | > 30 µM | – | > 30 µM | – | > 10 µM
